# Results published in patent US20130065868A1, “ANXIOYTIC MARCGRAVIACEAE COMPOSITIONS CONTAINING BETULINIC ACID, BETULINIC ACID DERIVATIVES, AND METHODS” (UNIVERSITY OF OTTAWA, priority 2002, published 2013).
# Where two headings read alike, the source gives them in different places.
# Assays:
# adrenergic α2 = experiment: MDS Panlabs screen: adrenergic α2; format: binding; settings: Catecholamines
# Description: (§1) Tests were conducted by MDS Panlabs to determine whether any of the classical neurotransmitter systems or the peptidergic systems thought to play a role in anxiety are affected by betulinic acid.
# [1] = general description of the substance; cited from earlier work
# Histamine H2 = Histamine H2 (Homo sapiens, UniProt P25021); experiment: MDS Panlabs screen: Histamine H2; format: binding
# Description: as §1
# 5-HT1A = 5-HT1A (Homo sapiens, UniProt P08908); experiment: MDS Panlabs screen: 5-HT1A; format: binding; settings: Serotonin (5-HT)
# Description: as §1
# muscarinic non-selective = experiment: MDS Panlabs screen: muscarinic non-selective; format: binding; settings: Acetylcholine
# Description: as §1
# 5-HT2 = experiment: MDS Panlabs screen: 5-HT2; format: binding; settings: Serotonin (5-HT)
# Description: as §1
# COX-2 = COX-2 (Homo sapiens, UniProt P35354); experiment: MDS Panlabs screen: cyclooxygenase COX-2; format: biochemical
# Description: as §1
# Histamine H3 = Histamine H3 (Homo sapiens, UniProt Q9Y5N1); experiment: MDS Panlabs screen: Histamine H3; format: binding
# Description: as §1
# 5-HT3 = 5-HT3 (Homo sapiens, UniProt P46098); experiment: MDS Panlabs screen: 5-HT3; format: binding; settings: Serotonin (5-HT)
# Description: as §1
# tachykinin NK1 = tachykinin NK1 (Homo sapiens, UniProt P25103); experiment: MDS Panlabs screen: tachykinin NK1; format: binding; settings: Peptides
# Description: as §1
# somatostatin = experiment: MDS Panlabs screen: somatostatin; format: binding; settings: Peptides
# Description: as §1
# [2] = Elevated plus maze, betulinic acid vs structurally related compounds (Example 11); format: in vivo; settings: 0.5 mg/kg (FIG. 7)
# From the text: This example compares the anxiolytic activity of betulinic acid and some other structurally related compounds. Results are illustrated in FIG. 7.
# opiate non-selective = experiment: MDS Panlabs screen: opiate non-selective; format: binding; settings: Peptides
# Description: as §1
# Sprague-Dawley rats = experiment: Elevated plus-maze (EPM) test in rats; format: in vivo, rat; settings: 1 mg/kg in peanut oil orally (gavage), 45-60 min after treatment, vs peanut oil (FIG. 3)
# Description: The majority of tests described in the following examples were conducted on adult; male Sprague-Dawley rats (typically weighing ˜300-450 gm) were obtained from Charles River Canada, St. Constant, Quebec. They were individually housed in standard clear Plexiglas cages (24×30×18 cm) and maintained on a 12 hr light/dark cycle (7:00 A.M.-7:00 P.M. light phase) in a temperature and humidity controlled room. Unless indicated otherwise, animals had free access to water and maintained on a restricted diet of 5 pellets a day of Purina Lab Chow. All experimental procedures complied with the guidelines of the Canadian Council on Animal Care and were approved by the Research Ethics Committee at the University of Ottawa. […]
# The EPM constitutes of a plus-shaped maze with two enclosed arms (or alleys; 50×10×40 cm) and two open arms (or planks; 50×10 cm), with a 10×10 cm central zone. […] To avoid distractions, the EPM was surrounded by black curtain and the subjects were monitored remotely, using a closed circuit camera mounted above the set-up.
# The rats were randomly assigned to each of the drug conditions. […] Behaviours scored included time spent in the open arms of the maze, time spent in the closed arms of the maze, number of entries into the open-arms and number of entries into the closed arm of the maze. […]
# cannabinoid C131 = cannabinoid C131 (Homo sapiens, UniProt P21554); experiment: MDS Panlabs screen: cannabinoid (first subtype); format: binding; settings: Peptides
# Description: as §1
# [3] = cited from earlier work
# galanin GALR2 = galanin GALR2 (Homo sapiens, UniProt O43603); experiment: MDS Panlabs screen: galanin GALR2; format: binding; settings: Peptides
# Description: as §1
# serotonin transporter = serotonin transporter (Homo sapiens, UniProt P31645); experiment: MDS Panlabs screen: serotonin transporter; format: binding; settings: Serotonin (5-HT)
# Description: as §1
# GABA transporter = experiment: MDS Panlabs screen: GABA transporter; format: binding; settings: Gabaergic
# Description: as §1
# TNF non-selective = experiment: MDS Panlabs screen: TNF non-selective; format: binding; settings: Peptides
# Description: as §1
# GABAB = GABAB (Homo sapiens, UniProt Q9UBS5); experiment: MDS Panlabs screen: GABAB; format: binding; settings: Gabaergic
# Description: as §1
# MAO A = MAO A (Homo sapiens, UniProt P21397); experiment: MDS Panlabs screen: MAO A; format: biochemical; settings: Catecholamines
# Description: as §1
# [4] = Acute or chronic toxicity at repeated doses; format: in vivo; settings: 500 mg/kg vs anxiolytic dose
# From the text: This is a dose 1000 times higher than that needed to reduce anxiety.
# Sequence of 5-HT3 (P46098 24-478, species assumed): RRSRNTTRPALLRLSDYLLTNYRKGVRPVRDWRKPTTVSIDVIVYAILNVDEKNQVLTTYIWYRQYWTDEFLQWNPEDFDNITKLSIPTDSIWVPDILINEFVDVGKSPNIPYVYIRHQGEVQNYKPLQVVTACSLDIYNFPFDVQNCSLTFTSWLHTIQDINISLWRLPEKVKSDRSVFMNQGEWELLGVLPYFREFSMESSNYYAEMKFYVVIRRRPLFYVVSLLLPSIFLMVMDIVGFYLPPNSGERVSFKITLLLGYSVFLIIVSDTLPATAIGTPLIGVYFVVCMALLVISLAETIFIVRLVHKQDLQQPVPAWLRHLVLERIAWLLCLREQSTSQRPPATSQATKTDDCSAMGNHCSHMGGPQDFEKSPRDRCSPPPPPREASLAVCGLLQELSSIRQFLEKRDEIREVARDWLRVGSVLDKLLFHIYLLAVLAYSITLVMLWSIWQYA
# Sequence of GABAB (Q9UBS5 15-961 limits assumed): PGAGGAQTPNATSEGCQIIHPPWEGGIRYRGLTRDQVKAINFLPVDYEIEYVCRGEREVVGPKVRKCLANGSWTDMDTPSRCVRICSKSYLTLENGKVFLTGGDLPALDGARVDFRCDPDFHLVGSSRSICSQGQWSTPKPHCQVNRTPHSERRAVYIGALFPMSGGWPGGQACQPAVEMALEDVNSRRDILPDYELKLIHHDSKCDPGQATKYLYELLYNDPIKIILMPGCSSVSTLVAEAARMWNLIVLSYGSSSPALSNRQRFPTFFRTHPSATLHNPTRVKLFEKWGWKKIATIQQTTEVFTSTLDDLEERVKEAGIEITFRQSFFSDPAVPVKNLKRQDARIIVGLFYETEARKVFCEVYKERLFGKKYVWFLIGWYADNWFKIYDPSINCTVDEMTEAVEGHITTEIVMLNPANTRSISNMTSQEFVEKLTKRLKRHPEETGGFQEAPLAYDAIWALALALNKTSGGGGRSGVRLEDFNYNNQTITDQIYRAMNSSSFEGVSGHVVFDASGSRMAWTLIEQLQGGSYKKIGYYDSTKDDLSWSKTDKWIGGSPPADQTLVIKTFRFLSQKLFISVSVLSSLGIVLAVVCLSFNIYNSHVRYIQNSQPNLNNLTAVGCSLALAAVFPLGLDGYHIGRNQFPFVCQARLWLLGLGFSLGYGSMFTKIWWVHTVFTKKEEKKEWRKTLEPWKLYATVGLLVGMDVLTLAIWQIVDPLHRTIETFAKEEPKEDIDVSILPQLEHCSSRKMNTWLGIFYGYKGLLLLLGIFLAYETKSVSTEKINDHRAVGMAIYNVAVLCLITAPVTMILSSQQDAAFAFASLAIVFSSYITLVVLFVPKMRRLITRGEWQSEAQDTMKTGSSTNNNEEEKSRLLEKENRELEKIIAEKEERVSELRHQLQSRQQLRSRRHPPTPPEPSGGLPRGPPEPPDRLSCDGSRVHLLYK
# Sequence of GABAB (O75899 42-941 partner): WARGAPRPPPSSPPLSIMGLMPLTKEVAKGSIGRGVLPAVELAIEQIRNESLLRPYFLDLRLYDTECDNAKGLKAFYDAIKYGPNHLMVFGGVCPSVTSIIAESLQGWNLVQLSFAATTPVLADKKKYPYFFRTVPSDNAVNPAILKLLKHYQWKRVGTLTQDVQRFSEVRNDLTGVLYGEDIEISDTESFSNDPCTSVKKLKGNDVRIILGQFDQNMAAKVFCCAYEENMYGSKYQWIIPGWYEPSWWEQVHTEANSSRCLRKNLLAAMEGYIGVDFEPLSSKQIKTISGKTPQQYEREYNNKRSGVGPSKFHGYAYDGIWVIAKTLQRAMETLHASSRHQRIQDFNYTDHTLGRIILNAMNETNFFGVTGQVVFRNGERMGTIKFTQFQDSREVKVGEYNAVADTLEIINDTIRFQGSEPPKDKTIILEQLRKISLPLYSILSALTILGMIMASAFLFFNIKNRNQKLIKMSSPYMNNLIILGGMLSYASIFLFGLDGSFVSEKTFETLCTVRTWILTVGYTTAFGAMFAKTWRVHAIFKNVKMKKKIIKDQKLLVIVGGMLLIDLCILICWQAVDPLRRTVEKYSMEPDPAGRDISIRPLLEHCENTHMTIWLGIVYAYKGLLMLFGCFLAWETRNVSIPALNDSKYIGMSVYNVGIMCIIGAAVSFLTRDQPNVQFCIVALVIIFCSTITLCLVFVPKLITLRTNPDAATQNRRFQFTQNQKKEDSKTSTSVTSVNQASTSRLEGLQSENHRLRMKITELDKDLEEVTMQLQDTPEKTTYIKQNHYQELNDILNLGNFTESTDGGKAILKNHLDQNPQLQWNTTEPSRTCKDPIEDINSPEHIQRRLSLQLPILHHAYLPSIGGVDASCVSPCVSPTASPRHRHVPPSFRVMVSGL
# Sequence of tachykinin NK1 (P25103 whole entry): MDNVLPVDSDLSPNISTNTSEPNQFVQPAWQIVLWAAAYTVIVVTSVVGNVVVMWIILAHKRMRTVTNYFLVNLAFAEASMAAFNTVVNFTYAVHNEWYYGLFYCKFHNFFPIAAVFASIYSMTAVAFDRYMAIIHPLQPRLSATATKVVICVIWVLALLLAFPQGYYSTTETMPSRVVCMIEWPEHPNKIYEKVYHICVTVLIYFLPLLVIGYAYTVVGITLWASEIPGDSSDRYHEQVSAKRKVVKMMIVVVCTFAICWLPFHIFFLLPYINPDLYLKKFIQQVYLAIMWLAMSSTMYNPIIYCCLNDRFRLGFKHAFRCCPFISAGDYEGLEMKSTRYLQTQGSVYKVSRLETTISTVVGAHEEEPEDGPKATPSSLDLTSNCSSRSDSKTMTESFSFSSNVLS
# Sequence of Histamine H2 (P25021 whole entry): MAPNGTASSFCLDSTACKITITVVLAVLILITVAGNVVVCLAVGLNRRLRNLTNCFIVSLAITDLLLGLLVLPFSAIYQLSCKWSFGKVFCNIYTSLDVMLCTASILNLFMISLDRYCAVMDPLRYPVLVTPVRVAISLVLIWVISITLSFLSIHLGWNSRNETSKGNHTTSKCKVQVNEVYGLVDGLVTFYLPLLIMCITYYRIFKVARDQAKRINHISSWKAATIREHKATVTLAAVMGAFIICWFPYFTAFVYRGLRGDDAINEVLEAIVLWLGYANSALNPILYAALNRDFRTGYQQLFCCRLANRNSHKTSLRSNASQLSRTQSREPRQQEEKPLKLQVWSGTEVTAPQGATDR
# Sequence of cannabinoid C131 (P21554 whole entry): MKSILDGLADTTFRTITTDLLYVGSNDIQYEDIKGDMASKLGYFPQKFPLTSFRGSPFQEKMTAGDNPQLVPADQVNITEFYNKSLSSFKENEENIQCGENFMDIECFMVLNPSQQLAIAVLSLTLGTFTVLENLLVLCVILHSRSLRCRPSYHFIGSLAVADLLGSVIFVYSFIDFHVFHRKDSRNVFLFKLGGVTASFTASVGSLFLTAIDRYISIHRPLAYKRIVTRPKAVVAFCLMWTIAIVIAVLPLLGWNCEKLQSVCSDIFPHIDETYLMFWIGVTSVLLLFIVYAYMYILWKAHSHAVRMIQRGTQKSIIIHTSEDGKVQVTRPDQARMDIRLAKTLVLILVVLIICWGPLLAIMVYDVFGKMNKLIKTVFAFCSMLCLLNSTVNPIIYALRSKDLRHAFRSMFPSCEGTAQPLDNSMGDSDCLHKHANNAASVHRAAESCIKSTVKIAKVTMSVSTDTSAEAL
# Sequence of serotonin transporter (P31645 whole entry): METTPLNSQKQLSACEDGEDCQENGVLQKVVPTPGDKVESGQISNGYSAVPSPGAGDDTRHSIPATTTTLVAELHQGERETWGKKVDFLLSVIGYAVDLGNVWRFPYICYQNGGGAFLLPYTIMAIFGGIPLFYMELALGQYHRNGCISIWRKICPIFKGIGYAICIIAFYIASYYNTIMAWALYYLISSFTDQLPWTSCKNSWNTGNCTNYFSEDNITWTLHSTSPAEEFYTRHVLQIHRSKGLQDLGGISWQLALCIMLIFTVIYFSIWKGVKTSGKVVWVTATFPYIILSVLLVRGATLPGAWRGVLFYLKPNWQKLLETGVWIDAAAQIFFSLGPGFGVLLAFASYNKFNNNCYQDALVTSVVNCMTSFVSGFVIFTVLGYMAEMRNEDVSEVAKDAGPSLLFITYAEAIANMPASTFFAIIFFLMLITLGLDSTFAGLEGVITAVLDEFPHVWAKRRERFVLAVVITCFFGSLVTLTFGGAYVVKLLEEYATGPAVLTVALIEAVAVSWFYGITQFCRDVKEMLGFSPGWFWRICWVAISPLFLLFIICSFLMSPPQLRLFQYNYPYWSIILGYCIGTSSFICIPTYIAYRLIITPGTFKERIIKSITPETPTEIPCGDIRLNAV
# Sequence of 5-HT1A (P08908 whole entry, species assumed): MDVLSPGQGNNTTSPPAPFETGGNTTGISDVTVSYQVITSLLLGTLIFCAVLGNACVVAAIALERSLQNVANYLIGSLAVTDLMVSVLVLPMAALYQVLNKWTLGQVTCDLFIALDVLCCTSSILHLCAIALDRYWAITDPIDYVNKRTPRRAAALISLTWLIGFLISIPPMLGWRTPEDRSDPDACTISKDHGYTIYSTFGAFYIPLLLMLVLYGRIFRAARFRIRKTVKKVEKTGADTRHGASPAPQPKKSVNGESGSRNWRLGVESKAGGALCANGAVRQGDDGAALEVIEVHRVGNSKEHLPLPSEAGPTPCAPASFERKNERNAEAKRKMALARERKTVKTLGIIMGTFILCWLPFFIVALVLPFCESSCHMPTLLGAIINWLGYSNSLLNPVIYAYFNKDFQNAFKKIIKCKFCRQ
# Sequence of galanin GALR2 (O43603 whole entry): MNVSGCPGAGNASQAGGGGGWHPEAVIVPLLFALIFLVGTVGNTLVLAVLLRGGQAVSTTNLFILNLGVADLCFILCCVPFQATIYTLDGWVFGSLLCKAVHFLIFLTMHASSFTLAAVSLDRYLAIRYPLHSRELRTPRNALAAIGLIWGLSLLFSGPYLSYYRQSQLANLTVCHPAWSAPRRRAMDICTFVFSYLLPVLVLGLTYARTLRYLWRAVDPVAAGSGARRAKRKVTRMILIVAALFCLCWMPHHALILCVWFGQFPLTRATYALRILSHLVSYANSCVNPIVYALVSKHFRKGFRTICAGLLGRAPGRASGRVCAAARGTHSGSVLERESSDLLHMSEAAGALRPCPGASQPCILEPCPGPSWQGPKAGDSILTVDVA
smiles,measurement,setting,value
"C=C(C)[C@@H]1CC[C@]2(C(=O)O)CC[C@]3(C)C(CC[C@@H]4[C@@]5(C)CC[C@H](O)C(C)(C)[C@@H]5CC[C@]43C)[C@@H]12 (stereo partly drawn) [betulinic acid, Betulinic acid]",affected by betulinic acid,adrenergic α2,none of the following neurotransmitters or proteins were affected
same,solubility (solvents),[1],"soluble in water, ethanol, ether, acetone, benzene, and chloroform"
same,affected by betulinic acid,Histamine H2,none of the following neurotransmitters or proteins were affected
same,affected by betulinic acid,5-HT1A,none of the following neurotransmitters or proteins were affected
same,affected by betulinic acid,muscarinic non-selective,none of the following neurotransmitters or proteins were affected
same,affected by betulinic acid,5-HT2,none of the following neurotransmitters or proteins were affected
same,affected by betulinic acid,COX-2,none of the following neurotransmitters or proteins were affected
same,affected by betulinic acid,Histamine H3,none of the following neurotransmitters or proteins were affected
same,affected by betulinic acid,5-HT3,none of the following neurotransmitters or proteins were affected
same,affected by betulinic acid,tachykinin NK1,none of the following neurotransmitters or proteins were affected
same,affected by betulinic acid,somatostatin,none of the following neurotransmitters or proteins were affected
same,proportion of time spent in the open arm of the elevated plus maze,[2],increased
same,affected by betulinic acid,opiate non-selective,none of the following neurotransmitters or proteins were affected
same,time spent on the open arms of the plus-maze,Sprague-Dawley rats,spent significantly more time on the open arms of the plus-maze
same,affected by betulinic acid,cannabinoid C131,none of the following neurotransmitters or proteins were affected
same,toxicity in a Hippocratic screen,[3]; 200 mg/kg,non-toxic
same,toxicity in a Hippocratic screen,[3]; 400 mg/kg,non-toxic
same,affected by betulinic acid,galanin GALR2,none of the following neurotransmitters or proteins were affected
same,affected by betulinic acid,serotonin transporter,none of the following neurotransmitters or proteins were affected
same,affected by betulinic acid,GABA transporter,none of the following neurotransmitters or proteins were affected
same,affected by betulinic acid,TNF non-selective,none of the following neurotransmitters or proteins were affected
same,affected by betulinic acid,GABAB,none of the following neurotransmitters or proteins were affected
same,affected by betulinic acid,MAO A,none of the following neurotransmitters or proteins were affected
same,non-toxic dose relative to the dose needed to reduce anxiety,[4],1000 times
